This note sets out measurements from paper PMC8472139, “Neuroprotective Effect of a Novel ATP-Synthase Inhibitor Bedaquiline in Cerebral Ischemia-Reperfusion Injury” (International Journal of Molecular Sciences, 2021).

This assay deals with T1, F1F0-ATP synthase (ATPase, complex V) (Rattus norvegicus, UniProt P05504+Q06645).
T1 construct: gene Atp5mc1; native complex from brain mitochondria (male Wistar rat), immunocaptured in microplate wells (Abcam ab109714 kit); mature c subunit is identical from Atp5mc1/Atp5mc2/Atp5mc3; with ATP synthase F(1) complex subunit alpha, mitochondrial; ATP synthase F(1) complex catalytic subunit beta, mitochondrial; ATP synthase F(1) complex subunit gamma, mitochondrial; ATP synthase F(1) complex subunit delta, mitochondrial; ATP synthase F(1) complex subunit epsilon, mitochondrial; ATP synthase peripheral stalk subunit OSCP, mitochondrial; ATP synthase peripheral stalk-membrane subunit b, mitochondrial
In words: ATP hydrolysis coupled to NADH oxidation, absorbance […] nm, immunocapture kit. Type of assay: biochemical.

With `COc1nc2ccc(Br)cc2cc1[C@@H](c1ccccc1)[C@@](O)(CCN(C)C)c1cccc2ccccc12` [BDQ, Bedaquiline], the inhibition (as a rule, the change of the read-out against control, counted positive when it falls) at 5 µM was about 50%.
